Experimental data taken from patent publication US5352608A (priority 1992, dated 1994).
“Also recorded” adds a separate entry of the source. Where two headings read alike, the source gives them in different places.

Assays:
[1] = tested on: Rhodobacter sphaeroides 2.4.1; format: cell-based
[2] = tested on: R. sphaeroides 2.4.1; format: cell-based, Rhodobacter sphaeroides
[3] = tested on: Rhodopseudomonas palustris 1e5; experiment: Intrinsic HLR to TeO3^2- (MIC); format: cell-based
[4] = tested on: E. coli; details: exogenously supplied L-methionine; Scala and Williams; cited from earlier work
[5] = Table 4, photoheterotrophic, 2 mM PO4^3-, 10 W/m^2
[6] = Table 4, photoheterotrophic, SMM succinate, 10 W/m^2

Compound	MIC Low-PO4^3- Medium [1]	MIC Standard Medium [1]	Resistance in words [1]	Gas evolution in words [2]	Reduction to elemental state [2]	also measured
[O]=[Cr](=[O])=[O] [CrO3]	< 10 µg/mL	20 µg/mL				MIC [1]: < 20 µg/mL
[O-][I+3]([O-])([O-])O [IO4^-]			resistance was shown	no gas evolution was observed	Neither IO4^-, SiO3^2-, nor SiO^42- was reduced to its elemental state	Decrease in resistance when extracellular phosphate reduced ten-fold [1]: three- to four-fold; Intrinsic resistance relative to γ-3 Proteobacteria [1]: twenty-fold
O=[Te](=O)([O-])[O-].[K+].[K+] [K2 TeO4]	500 µg/mL	500 µg/mL	High level resistance	Copious gas evolution		Intrinsic resistance relative to E. coli [3]: 40 times; Relative toxicity [1]: SeO4^2- >TeO4^2- >TeO3^2- >SeO3^2- >Rh2 O3.5H2 O; Appearance of cells / metal deposit [2]: intracellular accumulation of a dense metal deposit
[K+].[O]=[Mn](=[O])(=[O])[O-] [KMnO4]	< 10 µg/mL	20 µg/mL				MIC [1]: < 20 µg/mL
N[C@@H](CS)C(=O)O [L-cysteine, reference compound]						Effect of medium supplement on HLR [1]: solely responsible for the increased sensitivity to TeO3^2-
CSCC[C@H](N)C(=O)O [L-methionine, reference compound]						Effect of medium supplement on HLR [1]: no affect on HLR to TeO3^2-; TeO3^2- resistance enhancement by L-methionine [4]: two-fold
[O]=[Mo](=[O])=[O] [MoO3]	sat'd sol'n	sat'd sol'n	shows resistance			Effect on cell growth as saturated solution [1]: did not affect cell growth
[NH4+].[O]=[V](=[O])[O-] [NH4 VO3]	sat'd sol'n	sat'd sol'n	shows resistance			Effect on cell growth as saturated solution [1]: did not affect cell growth
[Na+].[Na+].[O]=[Cr](=[O])([O-])[O-] [Na2 CrO4]	20 µg/mL	10 µg/mL				MIC [1]: < 20 µg/mL
[Na+].[Na+].[O]=[Mo](=[O])([O-])[O-] [Na2 MoO4]			resistance was shown	no gas was evolved	not reduced to their elemental states	Effect of extracellular phosphate on resistance [1]: unaffected by extracellular phosphate levels; MIC Low-PO4^3- Medium [1, 5]: 1500 µg/mL; MIC Standard Medium [1, 6]: 1400 µg/mL
O=S([O-])[O-].[Na+].[Na+] [Na2 SO3]	500 µg/mL	600 µg/mL	resistance was shown	no gas was evolved	not reduced to their elemental states	Effect of extracellular phosphate on resistance [1]: unaffected by extracellular phosphate levels
O=[Se]([O-])[O-].[Na+].[Na+] [Na2 SeO3]	500 µg/mL	800 µg/mL	High level resistance			Relative toxicity [1]: SeO4^2- >TeO4^2- >TeO3^2- >SeO3^2- >Rh2 O3.5H2 O; Appearance of cells / metal deposit [2]: bright red in color
O=[Se](=O)([O-])[O-].[Na+].[Na+] [Na2 SeO4]	100 µg/mL	150 µg/mL	High level resistance			Relative toxicity [1]: SeO4^2- >TeO4^2- >TeO3^2- >SeO3^2- >Rh2 O3.5H2 O; Appearance of cells / metal deposit [2]: bright red in color
O=[Si]([O-])[O-].[Na+].[Na+] [Na2 SiO3]	100 µg/mL	400 µg/mL	resistance was shown	no gas evolution was observed	Neither IO4^-, SiO3^2-, nor SiO^42- was reduced to its elemental state	Decrease in resistance when extracellular phosphate reduced ten-fold [1]: three- to four-fold; Intrinsic resistance relative to γ-3 Proteobacteria [1]: twenty-fold
[Na+].[Na+].[O]=[W](=[O])([O-])[O-] [Na2 WO4]			resistance was shown	no gas was evolved	not reduced to their elemental states	Effect of extracellular phosphate on resistance [1]: unaffected by extracellular phosphate levels; MIC Low-PO4^3- Medium [1, 5]: 1600 µg/mL; MIC Standard Medium [1, 6]: 1600 µg/mL
O.O.O.O.O.[O]=[Rh][O][Rh]=[O] [Rh2 O3.5H2 O, rhodium sesquioxide]	sat'd sol'n	sat'd sol'n	High level resistance; also recorded: shows resistance			Effect on cell growth as saturated solution [1]: did not affect cell growth; Relative toxicity [1]: SeO4^2- >TeO4^2- >TeO3^2- >SeO3^2- >Rh2 O3.5H2 O; Appearance of cells / metal deposit [2]: grayish bronze
[O-2].[O-2].[O-2].[Sb+3].[Sb+3] [Sb2 O3]	sat,d sol'n	sat'd sol'n	shows resistance			Effect on cell growth as saturated solution [1]: did not affect cell growth
[O]=[Sn]=[O] [SnO2]	sat'd sol'n	sat'd sol'n	shows resistance			Effect on cell growth as saturated solution [1]: did not affect cell growth
N[C@@H](CSSC[C@H](N)C(=O)O)C(=O)O [cystine, reference compound]						Effect of medium supplement on HLR [1]: Neither cystine, glutathione nor thioglycollate, however, decreased HLR
N[C@@H](CCC(=O)N[C@@H](CS)C(=O)NCC(=O)O)C(=O)O [glutathione, reference compound]						Effect of medium supplement on HLR [1]: Neither cystine, glutathione nor thioglycollate, however, decreased HLR
O=C(O)CS [thioglycollate, reference compound]						Effect of medium supplement on HLR [1]: Neither cystine, glutathione nor thioglycollate, however, decreased HLR
Na2 HAsO4			resistance was shown	no gas was evolved	not reduced to their elemental states	Effect of extracellular phosphate on resistance [1]: unaffected by extracellular phosphate levels; MIC Low-PO4^3- Medium [1, 5]: 1600 µg/mL; MIC Standard Medium [1, 6]: 1500 µg/mL
Na2 SiO4	100 µg/mL	300 µg/mL	resistance was shown	no gas evolution was observed	Neither IO4^-, SiO3^2-, nor SiO^42- was reduced to its elemental state	Decrease in resistance when extracellular phosphate reduced ten-fold [1]: three- to four-fold; Intrinsic resistance relative to γ-3 Proteobacteria [1]: twenty-fold
Na2 SnO4	800 µg/mL	800 µg/mL	resistance was shown	no gas was evolved	not reduced to their elemental states	Effect of extracellular phosphate on resistance [1]: unaffected by extracellular phosphate levels
NaSiO4	150 µg/mL	400 µg/mL				
